Test results: US20220168430A1, “THERAPEUTIC METHODS FOR TREATING HEPATITIS B” (priority 2019, published 2022)
Where two headings read alike, the source gives them in different places.

Tests used:
[1] = system: HBV genome; assay: IC 50 of HBV siRNA duplexes (Table A); parameters: species or system Hepatitis B virus; conditions: siRNA duplex
[2] = system: HBV DNA; assay: HBV DNA in culture supernatants of HBV-infected PHH by qPCR, single agents and double combinations (Examples 1-4); format: cell-based, HBV genotype D; primary human hepatocytes; conditions: Hepatitis B virus; for inhibition at 0.005 µM / inhibition at 0.015 µM / inhibition at 0.044 µM / inhibition at 0.133 µM / inhibition at 0.4 µM: HBV DNA, (V) 0.00 μg/mL; for inhibition at 0.005 µM: (VI) 0.005 μM; for inhibition at 0.015 µM: (VI) 0.015 μM; for inhibition at 0.044 µM: (VI) 0.044 μM; for inhibition at 0.133 µM: (VI) 0.133 μM; for inhibition at 0.4 µM: (VI) 0.400 μM; for EC50: HBV DNA endpoint, PHH, determined in an earlier separate experiment, read-out: EC50; for inhibition at 0.05 µM: (VII) 0.05 μM alone; for inhibition at 0.15 µM: (VII) 0.15 μM alone; for inhibition at 0.44 µM: (VII) 0.44 μM alone; for inhibition at 1.33 µM: (VII) 1.33 μM alone; for inhibition at 4 µM: (VII) 4.00 μM alone
Description: (§1) The day PHH seeding date was defined as day 0.
(§2) The PHH were infected with 400 HBV GE/cell of HBV genotype D type HBV on day 1.
(§3) The test articles were further diluted with the culture medium to the final test concentrations.
(§4) All the test articles were further diluted 100 times with the culture medium. The final concentration of DMSO in the culture medium was […].
(§5) The compounds were tested at 7 concentrations, 3-fold dilution, in triplicate.
(§6) Four two-way combinations were performed on a 5×5 matrix, in triplicate plates. Transfection reagent was present in all wells. The culture medium containing the articles were refreshed every 1 or 2 days.
DNA in the culture supernatants harvested on days 8 was isolated with QIAamp 96 DNA Blood Kit (Qiagen-51162). For each sample, 100 μl of each culture supernatant was used to extract DNA. The DNA was eluted with 180 μl of AE. HBV DNA in the culture supernatants was quantified by quatitative PCR using primers and probes outlined in Table 3. Percent inhibition of HBV DNA was calculated with the formula below:
% Inh. HBV DNA=[1−value of sample/AVG. value of Medium control]×100.
(§7) Results of double combination studies were analyzed using MacSynergy II software (Prichard and Shipman, 1992).

[3] = system: HBsAg; assay: microbe, parasite or virus in culture; format: cell-based, HBV genotype D; primary human hepatocytes; conditions: Hepatitis B virus; for inhibition at 0.005 µM / inhibition at 0.015 µM / inhibition at 0.044 µM / inhibition at 0.133 µM / inhibition at 0.4 µM: read-out: AVERAGE % INHIBITION, HBsAg, (V) 0.00 μg/mL; for inhibition at 0.005 µM: (VI) 0.005 μM; for inhibition at 0.015 µM: (VI) 0.015 μM; for inhibition at 0.044 µM: (VI) 0.044 μM; for inhibition at 0.133 µM: (VI) 0.133 μM; for inhibition at 0.4 µM: (VI) 0.400 μM; for inhibition at 0.05 µM: (VII) 0.05 μM alone; for inhibition at 0.15 µM: (VII) 0.15 μM alone; for inhibition at 0.44 µM: (VII) 0.44 μM alone; for inhibition at 1.33 µM: (VII) 1.33 μM alone; for inhibition at 4 µM: (VII) 4.00 μM alone
Description: as §1, §2, §3, §4, §5, §6
HBsAg in the culture supernatants harvested on days 8 was measured using the HBsAg/ELISA kit (Autobio) according to the manual. The samples were diluted with PBS to get the signal in the range of the standard curve. Percent inhibition of HBsAg was calculated with the formula below:
% Inh. HBsAg=[1−HBsAg quantity of sample/[…] of DMSO control]×100
as §7

[4] = read-out: AVERAGE % INHIBITION, Exp 1
[5] = read-out: AVERAGE % INHIBITION, Exp 2

“1m: "double stranded siRNA molecules selected from the group consisting of 1m, 2m, 3m ... 15m" (sense AGGUAUGUUGCCCGUUUGUUU; antisense UUUCCAUACAACGGGCAAACA; chemistry not fully specified; one strand is listed 3' to 5') [Compound 1m]” showed an IC50 [1] of 1.43 nM.
“2m: "double stranded siRNA molecules selected from the group consisting of 1m, 2m, 3m ... 15m" (sense GCUCAGUUUACUAGUGCCAUU; antisense UUCGAGUCAAAUGAUCACGGU; chemistry not fully specified; one strand is listed 3' to 5') [Compound 2m]” was tested, and the IC50 [1] was 0.37 nM.
In the case of “3m: "double stranded siRNA molecules selected from the group consisting of 1m, 2m, 3m ... 15m" (sense CCGUGUGCACUUCGCUUCAUU; antisense UUGGCACACGUGAAGCGAAGU; chemistry not fully specified) [Compound 3m]”, the IC50 [1] is reported as 0.06 nM.
Compound “4m: "double stranded siRNA molecules selected from the group consisting of 1m, 2m, 3m ... 15m" (sense GCUCAGUUUACUAGUGCCAUU; antisense UUCGAGUCAAAUGAUCACGGU; chemistry not fully specified; one strand is listed 3' to 5') [Compound 4m]” has an IC50 [1] of 0.31 nM.
In the case of “5m: "double stranded siRNA molecules selected from the group consisting of 1m, 2m, 3m ... 15m" (sense CCGUGUGCACUUCGCUUCAUU; antisense UUGGCACACGUGAAGCGAAGU; chemistry not fully specified) [Compound 5m]”, the IC50 [1] is reported as 0.06 nM.
“6m: "double stranded siRNA molecules selected from the group consisting of 1m, 2m, 3m ... 15m" (sense CUGGCUCAGUUUACUAGUGUU; antisense UUGACCGAGUCAAAUGAUCAC; chemistry not fully specified; one strand is listed 3' to 5') [Compound 6m]” showed an IC50 [1] of 0.05 nM.
“8m: "double stranded siRNA molecules selected from the group consisting of 1m, 2m, 3m ... 15m" (sense GCUCAGUUUACUAGUGCCAUU; antisense UUCGAGUCAAAUGAUCACGGU; chemistry not fully specified; one strand is listed 3' to 5') [Compound 8m]” showed an IC50 [1] of 0.24 nM.
“9m: "double stranded siRNA molecules selected from the group consisting of 1m, 2m, 3m ... 15m" (sense AGGUAUGUUGCCCGUUUGUUU; antisense UUUCCAUACAACGGGCAAACA; chemistry not fully specified; one strand is listed 3' to 5') [Compound 9m]” showed an IC50 [1] of 0.13 nM.
With “10m: "double stranded siRNA molecules selected from the group consisting of 1m, 2m, 3m ... 15m" (sense GCCGAUCCAUACUGCGGAAUU; antisense UUCGGCUAGGUAUGACGCCUU; chemistry not fully specified; one strand is listed 3' to 5') [Compound 10m]” the IC50 [1] was 0.34 nM.
For “11m: "double stranded siRNA molecules selected from the group consisting of 1m, 2m, 3m ... 15m" (sense GCCGAUCCAUACUGCGGAAUU; antisense UUCGGCUAGGUAUGACGCCUU; chemistry not fully specified; one strand is listed 3' to 5') [Compound 11m]”, the IC50 [1] was 0.31 nM.
“12m: "double stranded siRNA molecules selected from the group consisting of 1m, 2m, 3m ... 15m" (sense GCCGAUCCAUACUGCGGAAUU; antisense UUCGGCUAGGUAUGACGCCUU; chemistry not fully specified; one strand is listed 3' to 5') [Compound 12m]” showed an IC50 [1] of 0.16 nM.
For `COCCCOc1cc2c(nc1OC)-c1cc(=O)c(C(=O)O)cn1[C@H](C(C)C)C2` [(VI)], the inhibition at 0.005 µM ([2]; Experiment 1) was 0.64%, the inhibition at 0.015 µM ([2]; Experiment 1) was 6.77% and the inhibition at 0.044 µM ([2]; Experiment 1) was 10.9%. It also gave an inhibition at 0.133 µM ([2]; Experiment 1) of 26.7%, an inhibition at 0.4 µM ([2]; Experiment 1) of 21.8% and an inhibition at 0.005 µM ([2]; Experiment 2) of 7.21%. It also gave an inhibition at 0.015 µM ([2]; Experiment 2) of 13.7%, an inhibition at 0.044 µM ([2]; Experiment 2) of 19.3% and an inhibition at 0.133 µM ([2]; Experiment 2) of 12.8%. It also gave an inhibition at 0.4 µM ([2]; Experiment 2) of 27.1%, an EC50 [2] of 6 nM and an EC50 [3] of 13 nM. For the same compound, the inhibition at 0.005 µM ([3]; Experiment 1) was 19.1%, the inhibition at 0.015 µM ([3]; Experiment 1) was 43.1% and the inhibition at 0.044 µM ([3]; Experiment 1) was 62.2%. For the same compound, the inhibition at 0.133 µM ([3]; Experiment 1) was 74%, the inhibition at 0.4 µM ([3]; Experiment 1) was 81% and the inhibition at 0.005 µM ([3]; Experiment 2) was 11.9%. It also gave an inhibition at 0.015 µM ([3]; Experiment 2) of 38.1%, an inhibition at 0.044 µM ([3]; Experiment 2) of 56.7% and an inhibition at 0.133 µM ([3]; Experiment 2) of 69.7%. The inhibition at 0.4 µM ([3]; Experiment 2) was 77.4%.
`Cn1cnc(COC(=O)N[C@H]2CCc3c(C(=O)Nc4ccc(F)c(Cl)c4)ccc(F)c32)n1` [(VII)] showed an inhibition at 0.05 µM ([2]; Exp 1) of -22.6%, an inhibition at 0.15 µM ([2]; Exp 1) of 28.7% and an inhibition at 0.44 µM ([2]; Exp 1) of 50%. The inhibition at 1.33 µM ([2]; Exp 1) was 53.9%, the inhibition at 4 µM ([2]; Exp 1) was 56.2% and the inhibition at 0.05 µM ([2]; Exp 2) was -0.21%. For the same compound, the inhibition at 0.15 µM ([2]; Exp 2) was 16.1%, the inhibition at 0.44 µM ([2]; Exp 2) was 31.2% and the inhibition at 1.33 µM ([2]; Exp 2) was 32.9%. For the same compound, the inhibition at 4 µM ([2]; Exp 2) was 41.3%, the EC50 [2] was 76 nM and the EC50 [3] was > 4000 nM. The inhibition at 0.05 µM [3, 4] was -14.1%, the inhibition at 0.15 µM [3, 4] was -5.43% and the inhibition at 0.44 µM [3, 4] was -9.81%. The inhibition at 1.33 µM [3, 4] was 29.9%, the inhibition at 4 µM [3, 4] was 49.6% and the inhibition at 0.05 µM [3, 5] was -3.42%. The inhibition at 0.15 µM [3, 5] was -8.51%, the inhibition at 0.44 µM [3, 5] was 1.73% and the inhibition at 1.33 µM [3, 5] was 29.4%. The inhibition at 4 µM [3, 5] was 48.7%.
